Counter-ions that a name gives are not always drawn. Like-named read-outs stand apart in the source and are kept apart here.

Data on 28 molecules can be found in patent US7550456B2, “Substituted aryl cycloalkanoyl derivatives and methods of their use” (Wyeth, priority 2003, dated 2009).

The test has as its target T1, human hNET (Homo sapiens, UniProt P23975).
T1 construct: expressed in transfected cells; host or cells: MDCK-Net6 (MDCK cells, stably transfected)
The test is described as follows: Norepinephrine (NE) uptake assay in MDCK-Net6 cells. Type of test: cell-based. Conditions: for inhibition at 10 µM: 10 μM test compound (stated in the cell). How it is done:
Cells were plated at 300,000/T75 flask and cells were split twice weekly. […] Cells were plated at 250,000 cells/T75 flask and split twice weekly.
Norepinephrine (NE) Uptake Assay
On day 1, cells were plated at 3,000 cells/well in growth medium and maintained in a cell incubator (37° C., 5% CO2). On day 2, growth medium was replaced with 200 μl of assay buffer (25 mM HEPES; 120 mM NaCl; 5 mM KCl; 2.5 mM CaCl2; 1.2 mM MgSO4; 2 mg/ml glucose (pH 7.4, 37° C.)) containing 0.2 mg/ml ascorbic acid and 10 μM pargyline. Plates containing cells with 200 μl of assay buffer were equilibrated for 10 minutes at 37° C. prior to addition of compounds. A stock solution of desipramine was prepared in DMSO (10 mM) and delivered to triplicate wells containing cells for a final test concentration of 1 μM. Data from these wells were used to define non-specific NE uptake (minimum NE uptake). Test compounds were prepared in DMSO (10 mM) and diluted in assay buffer according to test range (1 to 10,000 nM). Twenty-five microliters of assay buffer (maximum NE uptake) or test compound were added directly to triplicate wells containing cells in 200 μl of assay buffer. The cells in assay buffer with test compounds were incubated for 20 minutes at 37° C. […] The reaction was terminated by decanting the supernatant from the plate. The plates containing cells were washed twice with 200 μl assay buffer (37° C.) to remove free radioligand. The plates were then inverted, left to dry for 2 minutes, then reinverted and air-dried for an additional 10 minutes. The cells were lysed in 25 μl of 0.25 N NaOH solution (4° C.), placed on a shake table and vigorously shaken for 5 minutes. After cell lysis, 75 μl of scintillation cocktail was added to each well and the plates were sealed with film tape. The plates were returned to the shake table and vigorously shaken for a minimum of 10 minutes to ensure adequate partitioning of organic and aqueous solutions. The plates were counted in a Wallac Microbeta counter (PerkinElmer) to collect the raw cpm data.
For each experiment, a data stream of cpm values collected from the Wallac Microbeta counter was downloaded to a Microsoft Excel statistical application program. Calculations of EC50 values were made using the transformed-both-sides logistic dose response program written by Wyeth Biometrics Department.

The mark [1] stands for this setting: 1 μM test compound, [3H]NE uptake, read-out: % Inhibition @ 1 μM (hNET).

T1 sequence (P23975 whole entry): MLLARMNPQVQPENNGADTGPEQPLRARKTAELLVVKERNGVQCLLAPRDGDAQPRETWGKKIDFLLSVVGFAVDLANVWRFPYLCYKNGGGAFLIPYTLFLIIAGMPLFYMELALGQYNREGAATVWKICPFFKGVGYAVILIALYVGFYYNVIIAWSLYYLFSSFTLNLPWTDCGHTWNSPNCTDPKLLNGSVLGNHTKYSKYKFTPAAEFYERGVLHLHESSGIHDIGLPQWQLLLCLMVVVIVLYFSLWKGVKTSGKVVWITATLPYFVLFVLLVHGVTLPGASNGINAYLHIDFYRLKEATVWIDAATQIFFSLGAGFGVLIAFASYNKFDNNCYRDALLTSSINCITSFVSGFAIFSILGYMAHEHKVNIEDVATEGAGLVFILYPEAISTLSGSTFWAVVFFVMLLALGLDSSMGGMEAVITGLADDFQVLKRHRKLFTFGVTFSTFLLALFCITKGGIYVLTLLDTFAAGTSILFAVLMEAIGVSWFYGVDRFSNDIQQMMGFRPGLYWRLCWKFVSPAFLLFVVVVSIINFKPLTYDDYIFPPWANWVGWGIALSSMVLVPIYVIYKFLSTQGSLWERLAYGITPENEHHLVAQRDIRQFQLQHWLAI

In the case of `CN1CCN(CC(c2cccc(-c3ccc(Cl)c(Cl)c3)c2)C2(O)CCCCC2)CC1` (stereo not shown) [Example 247, 1-[1-(3′,4′-dichloro-1,1′-biphenyl-3-yl)-2-(4-methylpiperazin-1-yl)ethyl]cyclohexanol dihydrochloride], under setting [1], the inhibition (usually the change of the read-out against control, counted positive when it falls) at 1 µM was 49%. Take `OC1(C(CN2CCNCC2)c2cccc(-c3cccc(OC(F)(F)F)c3)c2)CCCCC1` (stereo not shown) [Example 248, 1-{2-piperazin-1-yl-1-[3′-(trifluoromethoxy)-1,1′-biphenyl-3-yl]ethyl}cyclohexanol dihydrochloride]: under setting [1], the inhibition at 1 µM was found to be 7%. Consider `OC1(C(CN2CCNCC2)c2cccc(-c3ccc(C(F)(F)F)cc3)c2)CCCCC1` (stereo not shown) [Example 249, 1-{2-piperazin-1-yl-1-[4′-(trifluoromethyl)-1,1′-biphenyl-3-yl]ethyl}cyclohexanol dihydrochloride], for which the inhibition at 1 µM under setting [1] came out at 32%. Same read-out and setting: the result for `COc1ccc(-c2cccc(C(CN3CCNCC3)C3(O)CCCCC3)c2)cc1OC` (stereo not shown) [Example 250, 1-[1-(3′,4′-dimethoxy-1,1′-biphenyl-3-yl)-2-piperazin-1-ylethyl]cyclohexanol dihydrochloride] reads 15%; that for `COc1ccc(C(CN2CCNCC2)C2(O)CCCCC2)cc1-c1cccc(OC(F)(F)F)c1` (stereo not shown) [Example 251, 1-{1-[6-methoxy-3′-(trifluoromethoxy)-1,1′-biphenyl-3-yl]-2-piperazin-1-ylethyl}cyclohexanol dihydrochloride], 47%; that for `COc1ccc(C(CN2CCNCC2)C2(O)CCCCC2)cc1-c1ccc(Cl)c(Cl)c1` (stereo not shown) [Example 252, 1-[1-(3′,4′-dichloro-6-methoxy-1,1′-biphenyl-3-yl)-2-piperazin-1-ylethyl]cyclohexanol dihydrochloride], 35%. On to `COc1ccc(C(CN2CCNCC2)C2(O)CCCCC2)cc1-c1ccc(C(F)(F)F)cc1` (stereo not shown) [Example 253, 1-{1-[6-methoxy-4′-(trifluoromethyl)-1,1′-biphenyl-3-yl]-2-piperazin-1-ylethyl}cyclohexanol dihydrochloride], for which the inhibition at 1 µM under setting [1] turned out to be 19%.

Regarding `COc1ccc(C(CN2CCNCC2)C2(O)CCCCC2)cc1-c1ccccc1` (stereo not shown) [Example 254, 1-[1-(6-methoxy-1,1′-biphenyl-3-yl)-2-piperazin-1-ylethyl]cyclohexanol dihydrochloride], the inhibition at 1 µM under setting [1] came out at 29%. Turning to `COc1ccc(C(CN2CCN(C)CC2)C2(O)CCCCC2)cc1-c1ccc(Cl)c(Cl)c1` (stereo not shown) [Example 255, 1-[1-(3′,4′-dichloro-6-methoxy-1,1′-biphenyl-3-yl)-2-(4-methylpiperazin-1-yl)ethyl]cyclohexanol dihydrochloride], under “[3H]NE uptake”, at 10 µM the inhibition was 70.7%. For the molecule `COc1ccc(C(CN2CCN(C)CC2)C2(O)CCCCC2)cc1-c1cccc(OC(F)(F)F)c1` (stereo not shown) [Example 256, 1-[1-[6-methoxy-3′-(trifluoromethoxy)-1,1′-biphenyl-3-yl]-2-(4-methylpiperazin-1-yl)ethyl]cyclohexanol dihydrochloride], for the setting “[3H]NE uptake”, the inhibition at 10 µM amounted to 72.8%. As for `COc1ccc(C(CN2CCN(C)CC2)C2(O)CCCCC2)cc1-c1ccc(C(F)(F)F)cc1` (stereo not shown) [Example 257, 1-[1-[6-methoxy-4′-(trifluoromethyl)-1,1′-biphenyl-3-yl]-2-(4-methylpiperazin-1-yl)ethyl]cyclohexanol dihydrochloride], the inhibition at 1 µM under setting [1] was 17%. `OC1(C(CN2CCNCC2)c2ccc(OCc3ccccc3)c(C(F)(F)F)c2)CCCCC1` (stereo not shown) [Example 263, 1-{1-[4-(benzyloxy)-3-(trifluoromethyl)phenyl]-2-piperazin-1-ylethyl}cyclohexanol dihydrochloride]: the inhibition at 1 µM under setting [1] amounted to 31%. The same measure, in the same setting: with `CN1CCN(CC(c2ccc(OCc3ccccc3)c(C(F)(F)F)c2)C2(O)CCCCC2)CC1` (stereo not shown) [Example 264, 1-[1-[4-(benzyloxy)-3-(trifluoromethyl)phenyl]-2-(4-methylpiperazin-1-yl)ethyl]cyclohexanol dihydrochloride] the figure was 89%. Still for that read-out and setting: with `CN1CCN(CC(c2ccc(OCc3ccccc3)c(Br)c2)C2(O)CCCCC2)CC1` (stereo not shown) [Example 265, 1-[1-[4-(benzyloxy)-3-bromophenyl]-2-(4-methylpiperazin-1-yl)ethyl]cyclohexanol dihydrochloride] the figure was 44%. For `N#Cc1cc(C(CN2CCNCC2)C2(O)CCCCC2)ccc1OCc1ccccc1` (stereo not shown) [Example 266, 2-(benzyloxy)-5-[1-(1-hydroxycyclohexyl)-2-piperazin-1-ylethyl]benzonitrile dihydrochloride], the inhibition at 1 µM under setting [1] stood at 91%. For the molecule `CN1CCN(CC(c2ccc(OCc3ccccc3)c(C#N)c2)C2(O)CCCCC2)CC1` (stereo not shown) [Example 267, 2-(benzyloxy)-5-[1-(1-hydroxycyclohexyl)-2-(4-methylpiperazin-1-yl)ethyl]benzonitrile dihydrochloride], the inhibition at 1 µM under setting [1] came to 89%. Turning to `OC1(C(CN2CCNCC2)c2ccc(OCc3ccccc3)c(OC(F)(F)F)c2)CCCCC1` (stereo not shown) [Example 268, 1-{1-[4-(benzyloxy)-3-(trifluoromethoxy)phenyl]-2-piperazin-1-ylethyl}cyclohexanol dihydrochloride], the inhibition at 1 µM under setting [1] was found to be 84%.

As for `CN1CCN(CC(c2ccc(OC(F)(F)F)cc2)C2(O)CCCCC2)CC1` (stereo not shown) [Example 283, 1-{2-(4-methylpiperazin-1-yl)-1-[4-(trifluoromethoxy)phenyl]ethyl}cyclohexanol dihydrochloride], where the note is “MDCK-Net6, read-out: % Inhibition @ 1 μM (hNET), 1 μM test compound, [3H]NE uptake”, the inhibition at 1 µM amounted to 70.7%.

Consider `OC1(C(CN2CCN(Cc3ccc4c(c3)OCO4)CC2)c2ccc(OC(F)(F)F)cc2)CCCCC1` (stereo not shown) [Example 285, 1-{2-[4-(1,3-benzodioxol-5-ylmethyl)piperazin-1-yl]-1-[4-(trifluoromethoxy)phenyl]ethyl}cyclohexanol dihydrochloride], for which the inhibition at 1 µM under setting [1] worked out at 20%. For `OC1(C(CN2CCN(CC3CCCCC3)CC2)c2ccc(OC(F)(F)F)cc2)CCCCC1` (stereo not shown) [Example 286, 1-{2-[4-(cyclohexylmethyl)piperazin-1-yl]-1-[4-(trifluoromethoxy)phenyl]ethyl}cyclohexanol dihydrochloride], the inhibition at 1 µM under setting [1] was 78.6%. In the case of `CCN1CCN(CC(c2ccc(OC(F)(F)F)cc2)C2(O)CCCCC2)CC1` (stereo not shown) [Example 287, 1-{2-(4-ethylpiperazin-1-yl)-1-[4-(trifluoromethoxy)phenyl]ethyl}cyclohexanol dihydrochloride], the inhibition at 1 µM under setting [1] is 60.8%. Regarding `C[C@@H]1CN(CC(c2ccc(OC(F)(F)F)cc2)C2(O)CCCCC2)C[C@H](C)N1` (stereo partly drawn) [Example 288, 1-{2-[cis-3,5-dimethylpiperazin-1-yl]-1-[4(trifluoromethoxy)phenyl]ethyl}cyclohexanol dihydrochloride], the inhibition at 1 µM under setting [1] stood at 77.6%.

Consider `OC1(C(CN2CCNCC2)c2ccc(-c3ccccc3F)cc2)CCCCC1` (stereo not shown) [Example 289, 1-[1-(2′-fluoro-1,1′-biphenyl-4-yl)-2-piperazin-1-ylethyl]cyclohexanol dihydrochloride], for which the inhibition at 1 µM under setting [1] came to 34%. Still for that read-out and setting: with `N#Cc1ccccc1-c1ccc(C(CN2CCNCC2)C2(O)CCCCC2)cc1` (stereo not shown) [Example 290, 4′-[1-(1-hydroxycyclohexyl)-2-piperazin-1-ylethyl]-1,1′-biphenyl-2-carbonitrile dihydrochloride] the figure was 36%; with `OC1(C(CN2CCNCC2)c2ccc(-c3cc(Cl)ccc3Cl)cc2)CCCCC1` (stereo not shown) [Example 291, 1-[1-(2′,5′-dichloro-1,1′-biphenyl-4-yl)-2-piperazin-1-ylethyl]cyclohexanol dihydrochloride], 40%.

Turning to `OC1(C(CN2CCNCC2)c2ccc(OCc3ccccc3)c(Cl)c2)CCCCC1` (stereo not shown) [Example 292, 1-{1-[4-(benzyloxy)-3-chlorophenyl]-2-piperazin-1-ylethyl}cyclohexanol dihydrochloride], the inhibition at 1 µM under setting [1] worked out at 89%.

With `CN1CCN(CC(c2ccc(OCc3ccccc3)c(Cl)c2)C2(O)CCCCC2)CC1` (stereo not shown) [Example 293, 1-[1-[4-(benzyloxy)-3-chlorophenyl]-2-(4-methylpiperazin-1-yl)ethyl]cyclohexanol dihydrochloride], the inhibition at 1 µM under setting [1] is 96%.

For the molecule `CN1CCN(CC(c2ccc(-c3cccc(Cl)c3)cc2)C2(O)CCC2)CC1` (stereo not shown) [Example 294, 1-[1-(3′-chloro-1,1′-biphenyl-4-yl)-2-(4-methylpiperazin-1-yl)ethyl]cyclobutanol dihydrochloride], for the setting “[3H]NE uptake”, the inhibition at 10 µM was found to be 27.2%.
